# Data published in ChEMBL document CHEMBL4196215 (J Med Chem, 2018).
# Assays:
# [1] = Thermodynamic solubility of the compound by quantitative nitrogen detection assay; type: physicochemical; conditions: read-out: Therm_solubility
# [2] = Plasma concentration in CD1 mouse at 10 mg/kg, ip measured after 0.5 hrs by LC-MS/MS analysis; type: ADME, organism-based
# [3] = Plasma concentration in CD1 mouse at 10 mg/kg, ip measured after 7 hrs by LC-MS/MS analysis; type: ADME, organism-based
# [4] = Plasma concentration in CD1 mouse at 10 mg/kg, ip measured after 4 hrs by LC-MS/MS analysis; type: ADME, organism-based
# Mus musculus [5] = assay: AUC (0 to 7 hrs) in CD1 mouse at 10 mg/kg, ip measured after 7 hrs by LC-MS/MS analysis; type: ADME, organism-based; set-up: dose 10 mg/kg, time < 7 hr, route intraperitoneal; conditions: in vivo
# [6] = Plasma concentration in CD1 mouse at 10 mg/kg, ip measured after 2 hrs by LC-MS/MS analysis; type: ADME, organism-based
# [7] = Metabolic stability in CD1 mouse liver microsomes assessed as half life at 1 uM in presence of NADPH by LC-MS/MS analysis; type: ADME, microsome
# Mus musculus [8] = assay: Time at which plasma concentration stays above invitro effective concentration for inhibition of ALDH1A3 in human PEO1 cells in CD1 mouse at 10 mg/kg, ip by LC-MS/MS analysis; type: organism-based; conditions: in vivo
# Mus musculus [9] = assay: Time at which plasma concentration stays above invitro effective concentration for inhibition of ALDH1A3 in human OVCAR5 cells in CD1 mouse at 10 mg/kg, ip by LC-MS/MS analysis; type: organism-based; conditions: in vivo
SMILES,solubility thermodynamic [1],t1/2 [7],further results
Cc1ccccc1-n1c(SCc2cccc(F)c2)nc2c(cnn2C)c1=O,38 µM,–,–
Cn1ncc2c(=O)n(Cc3ccccc3)c(SCc3cccc(F)c3)nc21,5 µM,–,–
O=c1c2cn(C3COC3)nc2nc(SCc2cccc(F)c2)n1-c1ccccc1,5 µM,–,concentration at 0.5 h [2]: 7600 nM; concentration at 7 h [3]: 900 nM; concentration at 4 h [4]: 3000 nM; AUC (Mus musculus [5]): 27.8 µM·h; concentration at 2 h [6]: 5200 nM
Cn1ncc2c(=O)n(-c3cccc(Cl)c3)c(SCc3cccc(F)c3)nc21,55 µM,–,–
Cn1ncc2c(=O)n(-c3ccccc3)c(SCc3cccc(F)c3)nc21,< 0.7 µM,–,–
Cn1ncc2c(=O)n(CCc3ccccc3)c(SCc3cccc(F)c3)nc21,3 µM,–,–
Cn1cc2c(=O)n(-c3ccccc3)c(SCc3cccc(F)c3)nc2n1,69 µM,13 min,–
O=c1c2cnn(C3COC3)c2nc(SCc2cccc(F)c2)n1-c1ccccc1,8 µM,–,–
O=c1c2cn(CC3COC3)nc2nc(SCc2cccc(F)c2)n1-c1ccccc1,53 µM,27 min,Time (Mus musculus [8]): 4 h; concentration at 0.5 h [2]: 5600 nM; concentration at 7 h [3]: 100 nM; concentration at 4 h [4]: 600 nM; AUC (Mus musculus [5]): 11 µM·h; concentration at 2 h [6]: 2600 nM; Time (Mus musculus [9]): 4 h
Cc1ccccc1-n1c(SCc2cccc(F)c2)nc2[nH]ncc2c1=O,2 µM,9 min,–
